Experimental data from ChEMBL document CHEMBL4879553, “Data for DCP probe BAY1125976” (2021).
Calls of active or inactive are those of the source. The rule behind the calls is not given here.

Experiments:
[1] = NanoBRET (AKT1); conditions: Homo sapiens
[2] = target: RAC-gamma serine/threonine-protein kinase (Homo sapiens, UniProt Q9Y243); assay: NanoBRET (AKT3)
[3] = target: Beta-1 adrenergic receptor (Homo sapiens) (UniProt P08588); conditions: Compound concentration 10.0 uM
[4] = target: Histamine H3 receptor (Homo sapiens) (UniProt Q9Y5N1); conditions: Compound concentration 10.0 uM
[5] = target: Beta-2 adrenergic receptor (Homo sapiens) (UniProt P07550); conditions: Compound concentration 10.0 uM
[6] = target: Sigma non-opioid intracellular receptor 1 (Homo sapiens) (UniProt Q99720); conditions: Compound concentration 10.0 uM
[7] = target: Alpha-2B adrenergic receptor (Homo sapiens) (UniProt P18089); conditions: Compound concentration 10.0 uM
[8] = target: Sigma intracellular receptor 2 (Homo sapiens) (UniProt Q5BJF2); conditions: Compound concentration 10.0 uM
[9] = NanoBRET (AKT2); conditions: Homo sapiens
[10] = target: 5-hydroxytryptamine receptor 2A (Homo sapiens) (UniProt P28223); conditions: Compound concentration 10.0 uM
[11] = target: D(3) dopamine receptor (Homo sapiens) (UniProt P35462); conditions: Compound concentration 10.0 uM
[12] = target: 5-hydroxytryptamine receptor 1B (Homo sapiens) (UniProt P28222); conditions: Compound concentration 10.0 uM
[13] = target: Muscarinic acetylcholine receptor M1 (Homo sapiens) (UniProt P11229); conditions: Compound concentration 10.0 uM
[14] = target: Muscarinic acetylcholine receptor M5 (Homo sapiens) (UniProt P08912); conditions: Compound concentration 10.0 uM
[15] = Mechanistic cell assay: inhibition of PRAS40 phosphorylation at T246; conditions: Homo sapiens
[16] = target: Alpha-1D adrenergic receptor (Homo sapiens) (UniProt P25100); conditions: Compound concentration 10.0 uM
[17] = target: 5-hydroxytryptamine receptor 5A (Homo sapiens) (UniProt P47898); conditions: Compound concentration 10.0 uM
[18] = target: GABA-A receptor; anion channel (Rattus norvegicus) (UniProt O09028+P15431+P18506+P18508+P19969+P20236+P23574+P23576+P28471+P28473+P30191+P62813+P63079+P63138+Q91ZM7+Q9ES14); conditions: Compound concentration 10.0 uM
[19] = Mechanistic cell assay: Inhibition of phosphorylation (T308); conditions: Homo sapiens
[20] = target: Muscarinic acetylcholine receptor M1 (Homo sapiens, UniProt P11229); assay: GPCRScan assay: inhibition of M1; set-up: radioligand conc. used [nm] 0.3 – 1.2, parental cells stable CHO
[21] = target: 5-hydroxytryptamine receptor 3A (Homo sapiens) (UniProt P46098); conditions: Compound concentration 10.0 uM
[22] = Mechanistic cell assay: Reduction of the basal levels of AKT phosphorylation in KPL-4 cells at S473; assay type: cell-based; conditions: Homo sapiens, KPL4
[23] = target: Sodium-dependent noradrenaline transporter (Homo sapiens) (UniProt P23975); conditions: Compound concentration 10.0 uM
[24] = target: Beta-3 adrenergic receptor (Homo sapiens) (UniProt P13945); conditions: Compound concentration 10.0 uM
[25] = target: Sodium-dependent dopamine transporter (Homo sapiens) (UniProt Q01959); conditions: Compound concentration 10.0 uM
[26] = target: Sodium-dependent serotonin transporter (Homo sapiens) (UniProt P31645); conditions: Compound concentration 10.0 uM
[27] = target: Histamine H2 receptor (Homo sapiens) (UniProt P25021); conditions: Compound concentration 10.0 uM
[28] = target: Kappa-type opioid receptor (Homo sapiens) (UniProt P41145); conditions: Compound concentration 10.0 uM
[29] = target: D(1A) dopamine receptor (Homo sapiens) (UniProt P21728); conditions: Compound concentration 10.0 uM
[30] = target: D(4) dopamine receptor (Homo sapiens) (UniProt P21917); conditions: Compound concentration 10.0 uM
[31] = target: Alpha-2C adrenergic receptor (Homo sapiens) (UniProt P18825); conditions: Compound concentration 10.0 uM
[32] = target: Muscarinic acetylcholine receptor M3 (Homo sapiens) (UniProt P20309); conditions: Compound concentration 10.0 uM
[33] = target: 5-hydroxytryptamine receptor 6 (Homo sapiens) (UniProt P50406); conditions: Compound concentration 10.0 uM
[34] = target: D(1B) dopamine receptor (Homo sapiens) (UniProt P21918); conditions: Compound concentration 10.0 uM
[35] = Mechanistic cell assay: Inhibition of activation by phosphorylation (4EBPI-T70); conditions: Homo sapiens
[36] = target: 5-hydroxytryptamine receptor 1D (Homo sapiens) (UniProt P28221); conditions: Compound concentration 10.0 uM
[37] = target: D(2) dopamine receptor (Homo sapiens) (UniProt P14416); conditions: Compound concentration 10.0 uM
[38] = target: 5-hydroxytryptamine receptor 2B (Homo sapiens) (UniProt P41595); conditions: Compound concentration 10.0 uM
[39] = target: 5-hydroxytryptamine receptor 1A (Homo sapiens) (UniProt P08908); conditions: Compound concentration 10.0 uM
[40] = target: Delta-type opioid receptor (Homo sapiens) (UniProt P41143); conditions: Compound concentration 10.0 uM
[41] = target: Histamine H1 receptor (Homo sapiens) (UniProt P35367); conditions: Compound concentration 10.0 uM
[42] = Mechanistic cell assay: Reduction of the basal levels of AKT phosphorylation in KPL-4 cells at T308; assay type: cell-based; conditions: Homo sapiens, KPL4
[43] = Mechanistic cell assay: Inhibition of activation by phosphorylation (AKT1-S473); conditions: Homo sapiens
[44] = target: Alpha-1A adrenergic receptor (Homo sapiens) (UniProt P35348); conditions: Compound concentration 10.0 uM
[45] = target: Muscarinic acetylcholine receptor M4 (Homo sapiens) (UniProt P08173); conditions: Compound concentration 10.0 uM
[46] = target: Alpha-2A adrenergic receptor (Homo sapiens) (UniProt P08913); conditions: Compound concentration 10.0 uM
[47] = target: Alpha-1B adrenergic receptor (Homo sapiens) (UniProt P35368); conditions: Compound concentration 10.0 uM
[48] = target: Muscarinic acetylcholine receptor M2 (Homo sapiens) (UniProt P08172); conditions: Compound concentration 10.0 uM
[49] = Mechanistic cell assay: Inhibition of phosphorylation (4EBPI-T70); conditions: Homo sapiens
[50] = Mechanistic cell assay: Blocking of the activation of the downstream signaling molecule 4EBP1 by phosphorylation at mTOR substrate T70; set-up: species or system Homo sapiens
[51] = target: Mu-type opioid receptor (Homo sapiens) (UniProt P35372); conditions: Compound concentration 10.0 uM
[52] = target: 5-hydroxytryptamine receptor 2C (Homo sapiens) (UniProt P28335); conditions: Compound concentration 10.0 uM
[53] = species: Rattus norvegicus; conditions: Compound concentration 10.0 uM
[54] = Mechanistic cell assay: Inhibition of phosphorylation (AKT1-S473); conditions: Homo sapiens
[55] = target: 5-hydroxytryptamine receptor 7 (Homo sapiens) (UniProt P34969); conditions: Compound concentration 10.0 uM

Muscarinic acetylcholine receptor M1, sequence (P11229 whole entry): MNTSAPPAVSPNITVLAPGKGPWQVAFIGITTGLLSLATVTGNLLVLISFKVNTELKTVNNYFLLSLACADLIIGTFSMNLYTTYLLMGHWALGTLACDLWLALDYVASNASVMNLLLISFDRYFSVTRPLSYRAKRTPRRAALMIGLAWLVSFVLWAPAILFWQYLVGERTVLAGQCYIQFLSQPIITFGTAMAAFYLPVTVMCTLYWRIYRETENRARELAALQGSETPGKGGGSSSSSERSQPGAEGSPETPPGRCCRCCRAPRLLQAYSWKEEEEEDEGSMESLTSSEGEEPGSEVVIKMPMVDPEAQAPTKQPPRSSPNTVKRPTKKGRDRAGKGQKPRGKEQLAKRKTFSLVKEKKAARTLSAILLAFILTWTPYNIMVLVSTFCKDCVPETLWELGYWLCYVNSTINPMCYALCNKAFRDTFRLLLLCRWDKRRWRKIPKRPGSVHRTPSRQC
Sodium-dependent noradrenaline transporter (Homo sapiens), sequence (P23975 whole entry): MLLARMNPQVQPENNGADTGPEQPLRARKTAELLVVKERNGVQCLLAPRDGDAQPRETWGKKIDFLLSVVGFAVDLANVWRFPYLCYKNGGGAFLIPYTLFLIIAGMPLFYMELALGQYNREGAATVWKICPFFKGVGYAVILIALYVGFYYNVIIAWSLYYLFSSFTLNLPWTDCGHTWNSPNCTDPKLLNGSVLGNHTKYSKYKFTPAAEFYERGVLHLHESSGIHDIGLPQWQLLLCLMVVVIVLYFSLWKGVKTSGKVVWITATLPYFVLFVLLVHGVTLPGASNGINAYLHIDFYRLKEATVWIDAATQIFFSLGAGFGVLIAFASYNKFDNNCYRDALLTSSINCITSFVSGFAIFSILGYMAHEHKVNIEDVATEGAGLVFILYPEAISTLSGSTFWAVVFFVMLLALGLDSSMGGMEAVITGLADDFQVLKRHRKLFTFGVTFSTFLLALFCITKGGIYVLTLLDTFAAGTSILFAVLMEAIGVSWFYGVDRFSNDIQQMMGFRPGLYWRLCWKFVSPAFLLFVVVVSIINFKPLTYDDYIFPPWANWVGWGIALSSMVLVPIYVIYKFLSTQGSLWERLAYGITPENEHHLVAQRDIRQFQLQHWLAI
D(1A) dopamine receptor (Homo sapiens), sequence (P21728 whole entry): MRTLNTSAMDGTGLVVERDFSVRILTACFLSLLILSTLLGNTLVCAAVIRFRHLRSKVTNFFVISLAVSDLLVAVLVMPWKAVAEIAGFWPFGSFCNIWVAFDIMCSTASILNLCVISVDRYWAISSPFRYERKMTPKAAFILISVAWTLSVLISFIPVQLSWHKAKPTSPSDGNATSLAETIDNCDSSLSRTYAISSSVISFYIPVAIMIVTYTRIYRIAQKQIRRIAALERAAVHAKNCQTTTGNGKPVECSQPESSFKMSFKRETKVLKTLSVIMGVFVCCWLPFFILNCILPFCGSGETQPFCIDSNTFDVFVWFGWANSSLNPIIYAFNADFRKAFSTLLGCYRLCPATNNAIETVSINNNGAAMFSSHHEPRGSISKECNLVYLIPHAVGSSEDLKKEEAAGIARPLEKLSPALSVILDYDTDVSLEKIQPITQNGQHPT
Beta-2 adrenergic receptor (Homo sapiens), sequence (P07550 whole entry, looked up): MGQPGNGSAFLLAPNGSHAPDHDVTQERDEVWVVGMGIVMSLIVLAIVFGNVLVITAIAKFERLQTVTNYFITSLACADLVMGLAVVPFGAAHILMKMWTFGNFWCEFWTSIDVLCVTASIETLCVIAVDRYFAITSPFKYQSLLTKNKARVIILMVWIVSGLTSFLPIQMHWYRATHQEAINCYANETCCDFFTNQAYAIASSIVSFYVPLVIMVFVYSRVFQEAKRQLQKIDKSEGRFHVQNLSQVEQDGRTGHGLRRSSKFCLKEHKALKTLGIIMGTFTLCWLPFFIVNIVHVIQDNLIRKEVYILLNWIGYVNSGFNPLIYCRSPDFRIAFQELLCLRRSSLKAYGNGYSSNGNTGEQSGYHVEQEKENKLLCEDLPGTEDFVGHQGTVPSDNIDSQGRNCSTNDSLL
Alpha-1A adrenergic receptor (Homo sapiens), sequence (P35348 whole entry): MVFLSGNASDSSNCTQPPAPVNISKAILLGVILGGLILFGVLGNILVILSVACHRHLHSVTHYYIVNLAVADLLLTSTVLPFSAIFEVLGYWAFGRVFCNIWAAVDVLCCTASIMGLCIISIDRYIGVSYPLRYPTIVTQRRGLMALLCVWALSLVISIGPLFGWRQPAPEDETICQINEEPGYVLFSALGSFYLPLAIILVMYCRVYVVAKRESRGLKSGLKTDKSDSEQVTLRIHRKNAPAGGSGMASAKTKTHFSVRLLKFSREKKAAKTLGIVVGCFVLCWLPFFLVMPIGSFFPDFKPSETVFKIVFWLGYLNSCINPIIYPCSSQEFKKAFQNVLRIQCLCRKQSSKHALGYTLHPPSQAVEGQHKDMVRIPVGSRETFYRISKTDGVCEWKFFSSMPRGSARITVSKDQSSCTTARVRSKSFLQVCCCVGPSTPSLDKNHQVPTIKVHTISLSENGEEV
Muscarinic acetylcholine receptor M1 (Homo sapiens), sequence (P11229 whole entry): as the sequence (P11229 whole entry) above
5-hydroxytryptamine receptor 1A (Homo sapiens), sequence (P08908 whole entry): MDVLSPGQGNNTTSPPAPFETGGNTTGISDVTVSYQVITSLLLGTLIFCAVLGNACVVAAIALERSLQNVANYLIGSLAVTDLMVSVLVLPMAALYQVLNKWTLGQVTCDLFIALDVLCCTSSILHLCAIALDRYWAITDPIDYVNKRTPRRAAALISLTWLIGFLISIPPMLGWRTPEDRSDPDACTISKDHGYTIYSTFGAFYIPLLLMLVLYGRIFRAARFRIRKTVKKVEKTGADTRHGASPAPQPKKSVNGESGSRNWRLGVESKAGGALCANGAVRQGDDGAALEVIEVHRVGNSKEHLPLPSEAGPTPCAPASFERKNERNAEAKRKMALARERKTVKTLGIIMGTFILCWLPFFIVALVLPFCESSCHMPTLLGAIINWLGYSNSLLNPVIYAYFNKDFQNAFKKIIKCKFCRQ
Histamine H1 receptor (Homo sapiens), sequence (P35367 whole entry): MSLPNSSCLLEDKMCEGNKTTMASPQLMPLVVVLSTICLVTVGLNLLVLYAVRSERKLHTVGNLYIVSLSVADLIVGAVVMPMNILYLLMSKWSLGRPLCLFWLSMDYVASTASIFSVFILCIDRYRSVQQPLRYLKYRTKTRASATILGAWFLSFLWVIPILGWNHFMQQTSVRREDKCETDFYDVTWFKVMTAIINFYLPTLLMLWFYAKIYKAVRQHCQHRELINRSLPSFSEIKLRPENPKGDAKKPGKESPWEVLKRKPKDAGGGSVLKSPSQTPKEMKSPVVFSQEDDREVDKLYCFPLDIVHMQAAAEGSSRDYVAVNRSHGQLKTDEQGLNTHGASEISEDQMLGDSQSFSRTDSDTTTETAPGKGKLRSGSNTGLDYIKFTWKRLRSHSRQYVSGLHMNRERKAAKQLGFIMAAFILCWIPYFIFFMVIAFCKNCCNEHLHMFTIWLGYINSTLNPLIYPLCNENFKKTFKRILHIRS
Beta-3 adrenergic receptor (Homo sapiens), sequence (P13945 whole entry, looked up): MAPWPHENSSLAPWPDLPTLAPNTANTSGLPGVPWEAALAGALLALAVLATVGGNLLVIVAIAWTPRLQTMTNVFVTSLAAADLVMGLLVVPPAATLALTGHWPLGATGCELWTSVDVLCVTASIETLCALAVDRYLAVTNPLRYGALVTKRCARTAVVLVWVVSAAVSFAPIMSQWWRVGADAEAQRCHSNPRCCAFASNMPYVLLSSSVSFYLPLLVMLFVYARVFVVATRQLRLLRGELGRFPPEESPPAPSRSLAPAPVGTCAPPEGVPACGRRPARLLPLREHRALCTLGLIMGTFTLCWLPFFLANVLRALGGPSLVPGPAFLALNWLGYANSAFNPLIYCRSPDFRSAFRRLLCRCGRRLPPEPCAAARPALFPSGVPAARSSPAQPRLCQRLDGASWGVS
5-hydroxytryptamine receptor 2A (Homo sapiens), sequence (P28223 whole entry): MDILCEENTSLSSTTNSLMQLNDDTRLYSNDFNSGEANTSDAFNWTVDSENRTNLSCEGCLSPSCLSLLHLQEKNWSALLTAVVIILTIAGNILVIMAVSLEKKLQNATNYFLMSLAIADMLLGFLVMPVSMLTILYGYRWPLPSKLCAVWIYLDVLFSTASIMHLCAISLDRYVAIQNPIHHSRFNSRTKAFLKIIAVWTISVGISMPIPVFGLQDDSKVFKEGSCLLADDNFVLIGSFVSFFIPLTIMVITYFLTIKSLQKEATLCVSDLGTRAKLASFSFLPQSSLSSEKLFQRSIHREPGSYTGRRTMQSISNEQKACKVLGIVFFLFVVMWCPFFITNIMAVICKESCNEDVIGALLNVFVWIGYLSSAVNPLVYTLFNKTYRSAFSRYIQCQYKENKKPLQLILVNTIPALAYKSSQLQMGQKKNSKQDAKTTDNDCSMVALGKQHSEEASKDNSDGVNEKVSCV
Histamine H3 receptor (Homo sapiens), sequence (Q9Y5N1 whole entry): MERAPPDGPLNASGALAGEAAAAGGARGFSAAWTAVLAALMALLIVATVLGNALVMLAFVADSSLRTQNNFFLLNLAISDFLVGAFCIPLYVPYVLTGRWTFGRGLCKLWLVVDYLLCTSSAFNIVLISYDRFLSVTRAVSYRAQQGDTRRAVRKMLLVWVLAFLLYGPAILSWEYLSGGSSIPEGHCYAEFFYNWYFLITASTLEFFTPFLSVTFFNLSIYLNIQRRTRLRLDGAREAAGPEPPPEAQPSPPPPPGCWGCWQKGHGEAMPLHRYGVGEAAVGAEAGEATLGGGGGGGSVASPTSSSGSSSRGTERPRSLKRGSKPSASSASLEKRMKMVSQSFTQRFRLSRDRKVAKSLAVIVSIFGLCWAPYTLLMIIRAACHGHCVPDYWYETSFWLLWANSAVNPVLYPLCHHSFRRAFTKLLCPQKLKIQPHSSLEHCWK
Sigma non-opioid intracellular receptor 1 (Homo sapiens), sequence (Q99720 whole entry): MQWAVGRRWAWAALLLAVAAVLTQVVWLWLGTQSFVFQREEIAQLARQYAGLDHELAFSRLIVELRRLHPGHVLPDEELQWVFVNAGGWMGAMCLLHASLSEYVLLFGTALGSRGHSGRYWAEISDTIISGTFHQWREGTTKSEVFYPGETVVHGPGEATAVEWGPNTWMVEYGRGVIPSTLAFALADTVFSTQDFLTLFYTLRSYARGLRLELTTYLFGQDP

Question: Which results are given for NC1(c2ccc(-c3nc4c(O)ccnn4c3-c3ccccc3)cc2)CCC1?
Answer: EC50 [1]: 1300 nM (not active); IC50 [1]: 6000 nM (not active); EC50 [2]: > 50000 nM (not active)

Question: Which inhibition [3] does the source give for NC(=O)c1ccc2nc(-c3ccc(C4(N)CCC4)cc3)c(-c3ccccc3)n2n1 [BAY-1125976] here?
Answer: 16.8%

Question: And the inhibition [4]?
Answer: 14.6%

Question: And the inhibition [5]?
Answer: 21.5%

Question: And the inhibition [6]?
Answer: -1.31%

Question: What about the inhibition [7] of the same compound?
Answer: 28.7%

Question: And the inhibition [8]?
Answer: 39.9%

Question: What about the EC50 [9] of the same compound?
Answer: 30 nM (active)

Question: What about the IC50 [9] of the same compound?
Answer: 10.7 nM (active)

Question: And the inhibition [10]?
Answer: 8.08%

Question: What about the inhibition [11] of the same compound?
Answer: 22.6%

Question: And the inhibition [12]?
Answer: 10.2%

Question: And the inhibition [13]?
Answer: 71.9%

Question: And the inhibition [14]?
Answer: 1.83%

Question: And the IC50 [15]?
Answer: 141 nM (active)

Question: And the inhibition [16]?
Answer: 37.8%

Question: What about the inhibition [17] of the same compound?
Answer: 9.78%

Question: And the inhibition [18]?
Answer: 38%

Question: What about the IC50 [19] of the same compound?
Answer: 5.6 nM (active)

Question: What about the Ki ([20]; read-out: Ki) of the same compound?
Answer: 1450 nM

Question: And the Ki ([20]; read-out: pKi (converted))?
Answer: 1350 nM

Question: And the inhibition [21]?
Answer: 10.8%

Question: And the IC50 [22]?
Answer: 1.1 nM (active)

Question: What about the inhibition [23] of the same compound?
Answer: 47.5%

Question: And the inhibition [24]?
Answer: 11.4%

Question: What about the inhibition [25] of the same compound?
Answer: 40%

Question: What about the inhibition [26] of the same compound?
Answer: 14.8%

Question: And the inhibition [27]?
Answer: 0.95%

Question: And the inhibition [28]?
Answer: 25.4%

Question: And the inhibition [29]?
Answer: -3.8%

Question: What about the inhibition [30] of the same compound?
Answer: 7.35%

Question: And the inhibition [31]?
Answer: 38.9%

Question: And the EC50 [1]?
Answer: 15 nM (active)

Question: What about the IC50 [1] of the same compound?
Answer: 2.84 nM (active)

Question: What about the inhibition [32] of the same compound?
Answer: 20.1%

Question: What about the inhibition [33] of the same compound?
Answer: 17.8%

Question: What about the inhibition [34] of the same compound?
Answer: 23.4%

Question: And the IC50 [35]?
Answer: 100 nM (active)

Question: What about the inhibition [36] of the same compound?
Answer: 12.2%

Question: And the inhibition [37]?
Answer: -1.55%

Question: And the inhibition [38]?
Answer: 13.4%

Question: And the inhibition [39]?
Answer: 32.7%

Question: What about the inhibition [40] of the same compound?
Answer: 26.9%

Question: And the inhibition [41]?
Answer: 30.8%

Question: And the IC50 [42]?
Answer: 0.9 nM (active)

Question: What about the IC50 [43] of the same compound?
Answer: 35 nM (active)

Question: What about the inhibition [44] of the same compound?
Answer: 39.4%

Question: And the inhibition [45]?
Answer: 12.4%

Question: What about the inhibition [46] of the same compound?
Answer: 6.89%

Question: What about the inhibition [47] of the same compound?
Answer: -8.97%

Question: What about the inhibition [48] of the same compound?
Answer: 11.2%

Question: What about the IC50 [49] of the same compound?
Answer: 35 nM (active)

Question: And the IC50 [50]?
Answer: 35 nM (active)

Question: What about the inhibition [51] of the same compound?
Answer: 31.1%

Question: And the inhibition [52]?
Answer: 25.7%

Question: And the inhibition [53]?
Answer: 40.5%

Question: And the IC50 [54]?
Answer: 0.8 nM (active)

Question: What about the inhibition [55] of the same compound?
Answer: 12.9%
